Laboratory results published in publication PMC11758220, “Identification of a Privileged Scaffold for Inhibition of Sterol Transport Proteins through the Synthesis and Ring Distortion of Diverse, Pseudo-Natural Products” (ACS Central Science, 2025).

Experiments:
[1] = target: T1, ORP1 (Homo sapiens, UniProt Q9BXW6); assay: Fluorescence polarisation (FP) competition with NBD-cholesterol, ORP1; type: binding; conditions: single dose, Dose = 10 µM
T1 construct: ORP1(534-950); host or cells: E. coli BL21(DE3)
T1 sequence (Q9BXW6 534-950): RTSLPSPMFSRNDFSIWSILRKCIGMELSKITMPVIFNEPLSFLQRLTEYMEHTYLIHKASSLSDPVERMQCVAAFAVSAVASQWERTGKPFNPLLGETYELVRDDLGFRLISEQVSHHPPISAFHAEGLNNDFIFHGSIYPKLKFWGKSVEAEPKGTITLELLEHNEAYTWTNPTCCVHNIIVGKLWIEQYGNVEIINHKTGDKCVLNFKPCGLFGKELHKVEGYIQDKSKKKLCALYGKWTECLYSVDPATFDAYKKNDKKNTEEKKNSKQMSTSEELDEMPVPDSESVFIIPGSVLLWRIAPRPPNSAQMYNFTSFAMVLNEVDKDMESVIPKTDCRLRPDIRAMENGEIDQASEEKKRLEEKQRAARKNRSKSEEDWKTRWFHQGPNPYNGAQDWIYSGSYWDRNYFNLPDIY
Text: Protein expression constructs
Human ASTER domains of Aster-A(359-547), -B(364-552) and -C(318-504) were subcloned into a pGEX-6p-2rbs vector, thus introducing the cloning artifact ‘GPLGS’.3 The pGEX-6P-1-GST-OSBP(377- […]
a gift from James H. Hurley (University of California).4 The pHIS_2His6_Thrombin_STARD4(2-205;C75S) plasmid was a gift from Young Jun Im (Chonnam National University).5 STARD5A was a gift from Nicola Burgess-Brown (Addgene plasmid #42392; http://n2t.net/addgene:42392; […]
Protein expression and purification […]
vectors including an N-terminal PreScission-cleavable glutathione S-transferase (GST)-tag were expressed in Escherichia coli (E. coli) OverExpress C41 in Terrific Broth (TB) medium for 16 h at 18 °C after the induction with 0.1 mM isopropyl β-D-1-thiogalactopyranoside (IPTG). Cells were harvested at 3500 × g for 15 minutes and lysed by sonication in buffer containing 50 mM HEPES pH 7.5, 300 mM NaCl, 10 %v/v glycerol, 5 mM dithiothreitol (DTT), 0.1 %v/v Triton X-100 and protease inhibitor mix HP plus (Serva). The lysate was purified by affinity chromatography on a GSTrap FF column (Cytiva) using an ÄKTA Start (Cytiva) in buffer containing 50 mM HEPES pH 7.5, 300 mM NaCl, 10 %v/v glycerol, 5 mM DTT and 0.01 %v/v Triton X-100. The GST-tag was cleaved overnight on the column at 4 °C. The Aster sterol binding domains were further purified by size-exclusion chromatography (SEC) on a HiLoad 16/600 Superdex 75 pg (Cytiva) in buffer containing 20 mM HEPES pH 7.5, 300 mM NaCl, 10 %v/v […]
STARD5(6-213) harboring an N-terminal His6-Tag were expressed in E. coli BL21(DE3) in Luria-Bertani Broth (LB) medium for approximately 16 h at 18 °C after induction with 0.15 mM IPTG. Cells were harvested at 3500 × g for 15 minutes and lysed by sonication in buffer containing 50 mM HEPES pH 7.5, 150 mM NaCl, 5 %v/v glycerol, 5 mM DTT, 0.1 %v/v Triton X -100 and ethylenediaminetetraacetic acid (EDTA)-free protease inhibitor cocktail (Sigma-Aldrich). The cleared lysate was purified by affinity chromatography on a Ni-NTA Superflow Cartridge (Qiagen) using an ÄKTA Start (Cytiva) in buffer containing 50 mM HEPES pH 7.5, 150 mM NaCl, 5 %v/v glycerol, 5 mM DTT. START domains were eluted by using elution buffer containing 50 mM HEPES pH 7.5, 150 mM NaCl, 5 %v/v glycerol, 5 mM DTT and 500 mM imidazole. Proteins were further purified by SEC on a HiLoad 16/600 Superdex 75 pg (Cytiva) in buffer containing 20 mM HEPES pH 7.5, 150 mM NaCl, 5 %v/v glycerol and 2 mM DTT.
The ORP domain of human OSBP(377-807) in the pGEX-6p-1 vector with an N-terminal PreScission-cleavable GST-tag was expressed in E. coli OverExpress C41 in LB medium for 16 h at 18 °C after induction with 0.1 mM IPTG. Cells were harvested at 3500 × g for 15 minutes and lysed by sonication in buffer containing 20 mM HEPES pH 7.5, 300 mM NaCl, 10 %v/v glycerol, 5 mM DTT, 0.1 %v/v Triton X-100 and EDTA-free protease inhibitor cocktail (Sigma-Aldrich). The cleared lysate was purified by affinity chromatography on a GSTrap HF column (Cytiva) using an ÄKTA Start (Cytiva) in buffer containing 20 mM HEPES pH 7.5, 300 mM NaCl, 10 %v/v glycerol, 5 mM DTT. OSBP(377 -807) was eluted by using elution buffer containing 20 mM HEPES pH 7.5, 300 mM NaCl, 10 %v/v glycerol, 5 mM DTT and 10 mM reduced glutathione. Proteins were further purified by SEC on a HiLoad 16/600 Superdex 75 pg (Cytiva) using an ÄKTA Explorer (Cytiva) in buffer containing 20 mM HEPES pH 7.5, 150 mM NaCl, 10 %v/v glycerol and 2 mM DTT.
The ORP domains of human ORP1(534-950) in pET24b(+) and ORP2(49-480) in the pET24b(+) vector including an N-terminal His6-Tag were expressed in E. coli BL21(DE3) in TB medium for approximately 16 h at 18 °C after induction with 0.1 mM IPTG. Cells were collected at 3500 × g for 15 minutes and lysed by sonification in buffer containing 10 mM Tris-HCl pH 8, 300 mM NaCl, 5 % glycerol, 2 mM DTT, 0.1 % Triton X-100 and EDTA-free protease inhibitor cocktail (Sigma-Aldrich). The cleared […]

[2] = target: T2, STARD1 (Homo sapiens, UniProt P49675); assay: Fluorescence polarisation (FP) competition with NBD-cholesterol, STARD1; type: binding; conditions: single dose, Dose = 10 µM
T2 construct: STARD1(66-284); made in house; host or cells: E. coli BL21(DE3)
T2 sequence (P49675 66-284): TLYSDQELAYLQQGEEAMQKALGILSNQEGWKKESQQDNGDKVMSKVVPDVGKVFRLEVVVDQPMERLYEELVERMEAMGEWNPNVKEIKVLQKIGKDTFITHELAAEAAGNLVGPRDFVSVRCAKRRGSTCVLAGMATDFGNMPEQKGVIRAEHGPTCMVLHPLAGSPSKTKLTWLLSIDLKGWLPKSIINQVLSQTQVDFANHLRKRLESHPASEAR

Structure (SMILES)	ORP1 (FP) inhibition [1] [%]	STARD1 (FP) inhibition [2] [%]	inhibition at 10 µM [1] [%]	inhibition at 10 µM [2] [%]
C[C@]12CC[C@@H](O)C[C@H]1CCc1c2[nH]c2ccc(Cl)cc12 [Compound 10c]	24.2	-12		
C[C@]12CC[C@@H](O)C[C@H]1CCc1c2[nH]c2ccc(F)cc12 [Compound 10d]	28.3	90		
Cc1ccc2[nH]c3c(c2c1)CC[C@@H]1C[C@H](O)CC[C@]31C [Compound 10e]			27.5	-3.33
COc1ccc2[nH]c3c(c2c1)CC[C@@H]1C[C@H](O)CC[C@]31C [Compound 10f]			11.7	-1.67
CC12CCC(O)CC1CCc1c2[nH]c2ccc(C(F)(F)F)cc12 (centres unmarked) [Compound 10g]			39.2	-35
C[C@]12CC[C@@H](O)C[C@H]1CCc1c2[nH]c2ccc(I)cc12 [Compound 10h]	35.8	15		
C[C@]12CC[C@@H](O)C[C@H]1CCc1c2[nH]c2c(F)cc(Cl)cc12 [Compound 10i]			14.2	-13
Cc1cc(C)c2c3c([nH]c2c1)[C@@]1(C)CC[C@@H](O)C[C@H]1CC3 [Compound 10j]			11.7	17
CCOC(=O)c1ccc2[nH]c3c(c2c1)CC[C@@H]1C[C@H](O)CC[C@]31C [Compound 10k]	10.0	-12		
C[C@]12CC[C@@H](O)C[C@H]1CCC(=O)c1ccccc1NC2=O [Compound 11a]	-2.5	7		
C[C@]12CC[C@@H](O)C[C@H]1CCC(=O)c1cc(Br)ccc1NC2=O [Compound 11b]			-1.7	0
Cc1ccc2c(c1)C(=O)CC[C@@H]1C[C@H](O)CC[C@]1(C)C(=O)N2 [Compound 11c]			-8.3	25
COc1ccc2c(c1)C(=O)CC[C@@H]1C[C@H](O)CC[C@]1(C)C(=O)N2 [Compound 11d]			-3.3	5
C[C@]12CC[C@@H](O)C[C@H]1CCC(=O)c1cc(C(F)(F)F)ccc1NC2=O [Compound 11e]			-3.3	10
C[C@]12CC[C@@H](O)C[C@H]1CCC(=O)c1cc(Cl)cc(F)c1NC2=O [Compound 11f]	-6.7	-3.33		
Cc1cc(C)c2c(c1)NC(=O)[C@@]1(C)CC[C@@H](O)C[C@H]1CCC2=O [Compound 11g]			-6.7	-8
Cc1ccc2[nH]c3c(c(=O)c2c1)C[C@@H]1C[C@H](O)CC[C@]31C [Compound 12]			-6.7	5
Cc1ccc2c(c1)[C@]1(O)CC[C@@H]3C[C@H](O)CC[C@]3(C)C1=N2 [Compound 14a]			65	17
COc1ccc2c(c1)[C@]1(O)CC[C@@H]3C[C@H](O)CC[C@]3(C)C1=N2 [Compound 14b]			0	10
Cc1cc(C)c2c(c1)N=C1[C@@]2(O)CC[C@@H]2C[C@H](O)CC[C@]12C [Compound 14c]			0	10
C[C@]12CC[C@@H]3C[C@H]1CC[C@@]21C(=Nc2ccccc21)O3 [Compound 15a]			10	18
CC12CCC3CC1CCC21C(=Nc2ccc(Cl)cc21)O3 (centres unmarked) [Compound 15c]			40	20
C[C@]12CC[C@@H]3C[C@H]1CC[C@@]21C(=Nc2ccc(F)cc21)O3 [Compound 15d]			11.7	17
Cc1ccc2c(c1)[C@@]13CC[C@@H]4C[C@@H](CC[C@@]41C)OC3=N2 [Compound 15e]			8.3	45
COc1ccc2c(c1)[C@@]13CC[C@@H]4C[C@@H](CC[C@@]41C)OC3=N2 [Compound 15f]			33.3	15
